Laboratory results from patent publication US10517913B2, “Composition for prevention, alleviation, or treatment of peripheral neuropathy comprising Lithospermi Radix extract as an effective component” (priority 2015, dated 2019).

Legend:
[1] = tested on: human lung cancer cells (A549); experiment: Drug-herb interaction with oxaliplatin cytotoxicity (Ez-Cytox), A549; format: cell-based; conditions: oxaliplatin 0 to 100 μg/ml alone (No treat), 72 hours
Procedure: A549 and HCT116 cells were purchased from the ATCC (USA). They were cultured in a 100 mm cell culture dish in an incubator at 37° C., 5% CO2, using an RPMI1640 basal medium supplemented with 10% heat inactivated FBS, 100 unit/ml penicillin, and 100 μg/ml streptomycin, and then used for in vitro tests. The basal medium, serum, and other additives were purchased from the Thermo Fisher Scientific.
Specifically, human lung cancer cells (A549) and human colon cancer cells (HCT116) were cultured according to [Materials and Methods 3-3]. The cells were plated in a 96-well culture dish at 5,000 cells per well. After 24 hours, the cells were simultaneously treated with serially diluted oxaliplatin (0 to 100 μg/ml) and the Lithospermi Radix extract (0(PBS), 10, 30, 100 μg/ml) prepared according to [Materials and Methods 1]. The cell only treated with oxaliplatin was served as a negative control. After 72 hours, the cell viability (%) was measured using Ez-Cytox assay kit. The rate of cell death (% death) caused by oxaliplatin was expressed by (100−cell viability (%)).

[2] = tested on: intraepidermal nerve fiber (IENF) of peripheral neuropathic animals induced by oxaliplatin; experiment: Quantitative histological analysis of intraepidermal nerve fiber (PGP9.5) in hind footpad skin; format: in vivo, C57BL/6 mice; conditions: oxaliplatin 10 mg/kg
Description: In the present invention, an animal model having peripheral neuropathy was induced by oxaliplatin. Eight-week old male C57BL/6 mice were purchased from the OrientBio. Following 1 week acclimation period in a cage in an animal test room, the base line (BL) of responses of experimental animals to 3 times of mechanical stimulations applied to the right hind footpad of the animal using von Frey filament hair. Then, the animals were divided into different groups (N=8 animals/group). Peripheral neuropathy was induced by injection of 5 mg/kg oxaliplatin through tail veins of animals (once a week, 2 times for 2 weeks, i.e., 10 mg/kg oxaliplatin in total). Oxaliplatin was purchased from the LC Laboratories. […]
The slice of hind footpad skin with 4 μm thickness was subjected to immunofluorescence staining using a PGP9.5 antibody, a marker for IENF in skin. […] The expression level of intraepidermal nerve fibers was expressed by the number of fluorescence-stained nerves in epidermis which were stemmed from dermis per field length of the basal membrane of epidermis (IENF/mm) within a viewing area under a fluorescence microscope. The fluorescent microscopic images were analyzed compared with control treatment using a software (Cellsense, Olympus). […]

PC-12 cells = experiment: Neurite outgrowth assay kit (NS225), qualitative analysis; format: cell-based; conditions: 200 nM oxaliplatin, NGF 100 ng/ml, 48 hours
Procedure: PC-12 was purchased from the ATCC (USA). The cells were cultured in a 100 mm cell culture dish coated with collagen type I in an incubator at 37° C., 5% CO2, using a DMEM basal medium supplemented with 5% non-heat inactivated fetal bovine serum (FBS), 10% heat inactivated horse serum (HS), 100 unit/ml penicillin, and 100 μg/ml streptomycin. The basal medium, sera, and other additives were purchased from the Thermo Fisher Scientific.
The neuroprotective effect of the Lithospermi Radix extract of the present invention was determined using a neurite outgrowth analysis kit (NS225, Millipore) with 1 μm pore-sized membrane.
Specifically, PC-12 was cultured according to [Materials and Methods 3-1] for 72 hours in a DMEM low serum-differentiation medium supplemented with 1% horse serum, 100 unit/ml penicillin, 100 μg/ml streptomycin, and 100 ng/ml nerve growth factor (NGF). The membrane with 1 μm pores was coated by immersing it in a 24-well plate containing a 10 μg/ml collagen solution in an amount of 400 μl/well for 2 hours at 37° C. The collagen-coated membrane was transferred to a well containing a 600 μl of differentiation medium, and then, the differentiated PC-12 cells for 72 hours were plated at 75,000 cells/100 μl/membrane. The cells were treated with 200 nM oxaliplatin to induce neurotoxicity. […]

With `O=C1[O][Pt]2([NH][C@@H]3CCCC[C@H]3[NH]2)[O]C1=O` [oxaliplatin] the “growth of cancer cells” value [1] was “inhibited”, the “densities of intraepidermal nerve fibers in hind footpad skin” value [2] was “reduced” and the “Nerve growth factor-induced neurite growth” value (PC-12 cells) was “inhibited”.
